From patent publication US10238658B2, “1-pyrazolyl-3-(4-((2-anilinopyrimidin-4-yl) oxy) napththalen-1-yl) ureas as p38 MAP kinase inhibitors” (Respivert Limited, priority 2011, dated 2019) come the findings set out here.

Each structure is given as a SMILES string.

What all share (type): cell-based
In assay [1] the test system is TNFα. The assay is described as follows: LPS-induced TNFα release in d-U937 cells. To be noted: Homo sapiens, dU937, dU937 cells; relative to 10 μg/mL BIRB796; read-out: LPS Induced Release TNFα REC50 (dU937). On the procedure: (§1) U937 cells, a human monocytic cell line, were differentiated into macrophage-type cells by incubation with PMA (100 ng/mL) for 48 to 72 hr. Cells were pre-incubated with final concentrations of test compound for 2 hr and were then stimulated with LPS (0.1 μg/mL; from E. Coli: O111:B4, Sigma) for 4 hr. The supernatant was collected for determination of TNFα and IL-8 concentrations by sandwich ELISA (Duo-set, R&D systems). […] The relative 50% effective concentration (REC50) was determined from the resultant concentration-response curve. The inhibition of IL-8 production was calculated at each concentration of test compound by comparison with vehicle control.

Assay [2] has as its system TNFα. The assay can be described thus: LPS-induced TNFα release in THP-1 cells. To be noted: Homo sapiens, THP-1, THP1 cells. The protocol:
THP-1 cells, a human monocytic cell line, were stimulated with 3 μg/mL of LPS (from E. Coli; 0111:B4, Sigma) for 4 hr and the supernatant collected for determination of the TNFα concentration by sandwich ELISA (Duo-set, R&D systems). The inhibition of TNFα production was calculated at each concentration by comparison with vehicle control.

A further assay relates to ICAM-1. The assay can be described thus: Poly I:C-induced ICAM-1 expression in BEAS2B cells. To be noted: Homo sapiens, BEAS-2B, read-out: PolyIC/ICAM1 IC50 (BEAS2B). On the procedure: Poly I:C was used in these studies as a simple, RNA virus mimic. Poly I:C-Oligofectamine mixture (1 μg/mL Poly I:C, ±2% Oligofectamine, 25 μL; Invivogen Ltd., San Diego, Calif., and Invitrogen, Carlsbad, Calif., respectively) was transfected into BEAS2B cells (human bronchial epithelial cells, ATCC). Cells were pre-incubated with final concentrations of test compounds for 2 hr and the level of ICAM-1 expression on the cell surface was determined by cell-based ELISA. At a time point 18 hr after poly I:C transfection, cells were fixed with 4% formaldehyde in PBS (100 μL) and then endogenous peroxidase was quenched by the addition of washing buffer (100 μL, 0.05% Tween in PBS: PBS-Tween) containing 0.1% sodium azide and 1% hydrogen peroxide. Cells were washed with wash-buffer (3×200 μL). and after blocking the wells with 5% milk in PBS-Tween (100 μL) for 1 hr, the cells were incubated with anti-human ICAM-1 antibody (50 μL; Cell Signaling Technology, Danvers, Mass.) in 1% BSA PBS overnight at 4° C.
The cells were washed with PBS-Tween (3×200 μL) and incubated with the secondary antibody (100 μL; HRP-conjugated anti-rabbit IgG, Dako Ltd., Glostrup, Denmark). The cells were then incubated with of substrate (50 μL) for 2-20 min, followed by the addition of stop solution (50 μL, 1N H2SO4). The ICAM-1 signal was detected by reading […] the absorbance at 450 nm against a reference wavelength of 655 nm using a spectrophotometer. The cells were then washed with PBS-Tween (3×200 μL) and total cell numbers in each well were determined by reading absorbance at 595 nm after Crystal Violet staining (50 μL of a 2% solution in PBS) and elution by 1% SDS solution (100 μL) in distilled water. The measured OD 450-655 readings were corrected for cell number by dividing with the OD595 reading in each well. The inhibition of ICAM-1 expression was calculated at each concentration of test compound by comparison with vehicle control.

The next assay relates to HRV16. The assay is described as follows: HRV16 induced CPE in MRC5 cells. To be noted: Human rhinovirus sp., HRV16, MRC5, at 0.04 μg/mL; read-out: HRV CPE (MRC5) % inhibition. The protocol:
The supernatants were aspirated, and then fresh media added followed by incubation for 4 days. Where appropriate, cells were pre-incubated with compound or DMSO for 2 hr, and the compounds and DMSO added again after washout of the virus.
The percentage inhibition for each well was calculated. The IC50 value was calculated from the concentration-response curve generated by the serial dilutions of the test compounds.

Assay [3] relates to IL-8. The assay can be described thus: LPS-induced IL-8 release in d-U937 cells. To be noted: Homo sapiens, dU937, dU937 cells. The protocol: as §1
In assay [4] the test system is IL-8. The assay can be described thus: Rhinovirus-induced IL-8 release in BEAS2B cells. To be noted: Homo sapiens, BEAS-2B, at 0.04 μg/mL; read-out: HRV IL-8 (BEAS2B) % inhibition. On the procedure: Human rhinovirus RV16 was obtained from the American Type Culture Collection (Manassas, Va.). Viral stocks were generated by infecting Hela cells with HRV until 80% of the cells were cytopathic.
BEAS2B cells were infected with HRV at an MOI of 5 and incubated for 2 hr at 33° C. with gentle shaking for to promote absorption. The cells were then washed with PBS, fresh media added and the cells were incubated for a further 72 hr. The supernatant was collected for assay of IL-8 concentrations using a Duoset ELISA development kit (R&D systems, Minneapolis, Minn.). […]

Another assay deals with PBMC. The assay is described as follows: Cell mitosis assay. To be noted: Homo sapiens; for inhibition at 5 µg/mL: read-out: Mitosis Assay % inhibition in PBMC Cells at concn 5 μg/mL; for inhibition at 1 µg/mL: read-out: Mitosis Assay % inhibition in PBMC Cells at concn 1 μg/mL. On the procedure:
Peripheral blood mononucleocytes (PBMCs) from healthy subjects were separated from whole blood (Quintiles, London, UK) using a density gradient (Histopaque®-1077, Sigma-Aldrich, Poole, UK). The PBMCs (3 million cells per sample) were subsequently treated with 2% PHA (Sigma-Aldrich, Poole, UK) for 48 hr, followed by a 20 hr exposure to varying concentrations of test compounds. At 2 hr before collection, PBMCs were treated with demecolcine (0.1 μg/mL; Invitrogen, Paisley, UK,) to arrest cells in metaphase. To observe mitotic cells, PBMCs were permeabilised and fixed by adding Intraprep (50 μL; Beckman Coulter, France), and stained with anti-phospho-histone 3 ([…]; #9701; Cell Signalling, Danvers, Mass.) and propidium iodide (1 mg/mL; Sigma-Aldrich, Poole, UK,) as previously described (Muehlbauer P. A. and Schuler M. J., Mutation Research, 2003, 537:117-130). Fluorescence was observed using an ATTUNE flow cytometer (Invitrogen, Paisley, UK), gating for lymphocytes.

For `Cc1ccc(-n2nc(C(C)(C)C)cc2NC(=O)Nc2ccc(Oc3ccnc(Nc4ccc(O)cc4C)n3)c3ccccc23)cc1` [Example 24, 1-(3-(tert-butyl)-1-(p-tolyl)-1H-pyrazol-5-yl)-3-(4-((2-((4-hydroxy-2-methylphenyl)amino)pyrimidin-4-yl)oxy)naphthalen-1-yl)urea], the EC50 in the assay on TNFα [1] worked out at 2.3 nM. Further, the IC50 in the assay with TNFα [2] turned out to be 0.8 nM; in the assay with ICAM-1 it was 5 nM; in the assay with IL-8 [3], 86 nM. Also, the inhibition at 0.04 µg/mL with HRV16 worked out at 41%; in the assay with IL-8 [4], 100%.

For `Cc1ccc(-n2nc(C(C)(C)C)cc2NC(=O)Nc2ccc(Oc3ccnc(Nc4ccc(C)c(O)c4)n3)c3ccccc23)cc1` [Example 26, 1-(3-(tert-butyl)-1-(p-tolyl)-1H-pyrazol-5-yl)-3-(4-((2-((3-hydroxy-4-methylphenyl)amino)pyrimidin-4-yl)oxy)naphthalen-1-yl)urea], the EC50 in the assay with TNFα [1] was 4.1 nM. The IC50 was determined as 1.9 nM in the assay on TNFα [2], 8.4 nM in the assay on ICAM-1 and 6.6 nM in the assay on IL-8 [3]. The inhibition at 0.04 µg/mL turned out to be 69% in the assay with HRV16 and 100% with IL-8 [4].

As for `Cc1ccc(-n2nc(C(C)(C)C)cc2NC(=O)Nc2ccc(Oc3ccnc(Nc4ccc(O)cc4O)n3)c3ccccc23)cc1` [Example 32, 1-(3-(tert-butyl)-1-(p-tolyl)-1H-pyrazol-5-yl)-3-(4-((2-((2,4-dihydroxyphenyl)amino)pyrimidin-4-yl)oxy)naphthalen-1-yl)urea], in the assay with TNFα [1], the EC50 was found to be 12 nM. In addition, the IC50 in the assay with TNFα [2] was 14 nM; in the assay on IL-8 [3], 9.7 nM. The figures for the inhibition at 0.04 µg/mL in the assay with HRV16 and in the assay with IL-8 [4] were 26% and 100%, respectively. Moreover, the inhibition at 5 µg/mL with PBMC was 33%.

As to `COc1ccccc1Nc1nccc(Oc2ccc(NC(=O)Nc3cc(C(C)(C)C)nn3-c3ccc(C)cc3)c3ccccc23)n1` [Example 5, 1-(3-(tert-butyl)-1-(p-tolyl)-1H-pyrazol-5-yl)-3-(4-((2-((2-methoxyphenyl)amino)pyrimidin-4-yl)oxy)naphthalen-1-yl)urea], the EC50 with TNFα [1] was 2.9 nM. Moreover, the IC50 with TNFα [2] came to 66 nM; with ICAM-1, 17 nM; with IL-8 [3] it was 6.2 nM. The inhibition at 0.04 µg/mL in the assay on HRV16 stood at 91%; in the assay on IL-8 [4], 49%.

Turning to `COc1ccc(-n2nc(C(C)(C)C)cc2NC(=O)Nc2ccc(Oc3ccnc(Nc4ccc(O)cc4)n3)c3ccccc23)cc1` [Example 33, 1-(3-(tert-butyl)-1-(4-methoxyphenyl)-1H-pyrazol-5-yl)-3-(4-((2-((4-hydroxyphenyl)amino)pyrimidin-4-yl)oxy)naphthalen-1-yl)urea], in the assay on TNFα [1], the EC50 was 7.4 nM. Further, the IC50 in the assay with TNFα [2] worked out at 0.5 nM; in the assay with IL-8 [3] it was 6.3 nM. Besides, the inhibition at 0.04 µg/mL with HRV16 was 44%; in the assay on IL-8 [4], 100%. In addition, the inhibition at 5 µg/mL in the assay on PBMC amounted to 67.2%.

Turning to `COc1ccc(-n2nc(C(C)(C)C)cc2NC(=O)Nc2ccc(Oc3ccnc(Nc4ccccc4)n3)c3ccccc23)cc1` [Example 7, 1-(3-(tert-butyl)-1-(4-methoxyphenyl)-1H-pyrazol-5-yl)-3-(4-((2-(phenylamino)pyrimidin-4-yl)oxy)naphthalen-1-yl)urea], the EC50 with TNFα [1] turned out to be 1.7 nM. In addition, the IC50 in the assay with TNFα [2] was determined as 10 nM; in the assay with IL-8 [3] it was 2.1 nM. Besides, the inhibition at 0.04 µg/mL with HRV16 is not above 0%; in the assay with IL-8 [4], 100%. In addition, the inhibition at 5 µg/mL with PBMC was determined as 10.2%.

On to `Cc1ccc(-n2nc(C(C)(C)C)cc2NC(=O)Nc2ccc(Oc3ccnc(Nc4ccc(Cl)cc4)n3)c3ccccc23)cc1` [Example 16, 1-(3-(tert-butyl)-1-(p-tolyl)-1H-pyrazol-5-yl)-3-(4-((2-((4-chlorophenyl)amino)pyrimidin-4-yl)oxy)naphthalen-1-yl)urea], for which the EC50 in the assay with TNFα [1] worked out at 1.1 nM. The IC50 with TNFα [2] is 4.1 nM; in the assay with ICAM-1 it was 36 nM; in the assay on IL-8 [3], 0.31 nM. Besides, the inhibition at 0.04 µg/mL in the assay with HRV16 was 10%; in the assay with IL-8 [4], 100%.

In the case of `COc1ccc(Nc2nccc(Oc3ccc(NC(=O)Nc4cc(C(C)(C)C)nn4-c4ccc(C)cc4)c4ccccc34)n2)c(OC)c1` [Example 8, 1-(3-(tert-butyl)-1-(p-tolyl)-1H-pyrazol-5-yl)-3-(4-((2-((2,4-dimethoxyphenyl)amino)pyrimidin-4-yl)oxy)naphthalen-1-yl)urea], in the assay on TNFα [1], the EC50 was determined as 227 nM. The IC50 was 225 nM in the assay on TNFα [2] and 235 nM in the assay with IL-8 [3]. The inhibition at 0.04 µg/mL in the assay on HRV16 and in the assay with IL-8 [4] was 100% in each case. Further, in the assay on PBMC, the inhibition at 1 µg/mL worked out at 15.6%.

`COc1cc(Nc2nccc(Oc3ccc(NC(=O)Nc4cc(C(C)(C)C)nn4-c4ccc(C)cc4)c4ccccc34)n2)ccc1O` [Example 25, 1-(3-(tert-butyl)-1-(p-tolyl)-1H-pyrazol-5-yl)-3-(4-((2-((4-hydroxy-3-methoxyphenyl)amino)pyrimidin-4-yl)oxy)naphthalen-1-yl)urea]: in the assay on TNFα [1], the EC50 was determined as 0.84 nM. For the same molecule, in the assay with TNFα [2], the IC50 amounted to 0.4 nM. For the same molecule, the IC50 in the assay on IL-8 [3] came out at 1.5 nM. In the assay with PBMC, the inhibition at 1 µg/mL was determined as 29.1% and the inhibition at 5 µg/mL stood at 63.5%. In addition, the inhibition at 0.04 µg/mL in the assay with IL-8 [4] came out at 100%.

With `COc1ccc(Nc2nccc(Oc3ccc(NC(=O)Nc4cc(C(C)(C)C)nn4-c4ccc(C)cc4)c4ccccc34)n2)cc1OC` [Example 27, 1-(3-(tert-butyl)-1-(p-tolyl)-1H-pyrazol-5-yl)-3-(4-((2-((3,4-dimethoxyphenyl)amino)pyrimidin-4-yl)oxy)naphthalen-1-yl)urea], the EC50 in the assay on TNFα [1] came out at 0.54 nM. Besides, the IC50 in the assay with TNFα [2] was 0.5 nM; in the assay with IL-8 [3], 2 nM. Besides, the inhibition at 0.04 µg/mL amounted to 51% in the assay on HRV16 and 100% with IL-8 [4]. Moreover, the inhibition at 5 µg/mL with PBMC was found to be 11.2%.
